Laboratory results: US9617256B2 (priority 2007, dated 2017)
≈ marks a conversion by molar mass, not a printed value. Read-outs that look alike come from different tables or passages of the source. Values belong to the compound of their own block, whether it stands above or below them.

What was measured:
[1] = tested on: AECO001 (ATCC25922); experiment: MIC broth microdilution, AECO001; type: cell-based, E. coli; settings: for MIC: Escherichia coli; for Ratio of MICs on AECO001 [Cpd (A = —CHCH3NH2)/Cpd (A = —C(CH3)2NH2)]: MIC of paired compound with A = —CHCH3NH2 divided by MIC of compound with A = —C(CH3)2NH2, n=2 data, pairs identical except for the A moiety
How it was run: (§1)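 CLSI-guided microdilution: bacteria passaged overnight at 35° C. on Mueller-Hinton agar, tested in cation-adjusted broth at a final 3×10^5–7×10^5 CFU/mL across 2-fold drug dilutions, read after 18-24 h at 35° C.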

[2] = tested on: AECO063 (ATCC25922 bearing an acrAB mutation); experiment: microbe, parasite or virus in culture; type: cell-based, E. coli; settings: Escherichia coli, ATCC25922, read-out: MIC AECO063
How it was run: as §1

[3] = tested on: APAE001 (ATCC27853); experiment: MIC broth microdilution, APAE001; type: cell-based, P. aeruginosa; settings: Pseudomonas aeruginosa, ATCC27853, read-out: MIC APAE001, APAE001 (ATCC27853)
How it was run: as §1

[4] = tested on: APAE006 (strain of P. aeruginosa in which all efflux pumps are inactivated); experiment: microbe, parasite or virus in culture; type: cell-based; settings: Pseudomonas aeruginosa, read-out: MIC APAE006, APAE006, all efflux pumps inactivated
How it was run: (§2)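 For the efflux-deficient P. aeruginosa APAE006, one set of MICs includes polymyxin B nonapeptide at 8 micrograms per milliliter.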

[5] = tested on: APAE006 in the presence of 8 micrograms per milliliter of polymyxin B nonapeptide; type: cell-based, P. aeruginosa; settings: APAE006 with 8 micrograms per milliliter polymyxin B nonapeptide
How it was run: as §2

[6] = tested on: AABA1060 (clinical isolate of Acinetobacter baumannii); experiment: MIC broth microdilution, AABA1060; type: cell-based; settings: Acinetobacter baumannii, read-out: MIC AABA1060
How it was run: as §1

[7] = tested on: ASAU001 (laboratory strain of S. aureus, ATCC29213); experiment: MIC broth microdilution, ASAU001; type: cell-based; settings: Staphylococcus aureus, ATCC29213, read-out: MIC ASAU001
How it was run: as §1

[8] = tested on: ATCC43816; experiment: MIC broth microdilution, infecting strain ATCC43816; type: cell-based; settings: ratio >1 means the —C(CH3)2NH2 compound had a lower MIC than the paired —C(CH3)2OH compound
Procedure: Minimum Inhibitory Concentrations (MICs) were determined by the broth microdilution method in accordance with the Clinical and Laboratory Standards Institute (CLSI) guidelines. In brief, organism suspensions were adjusted to a 0.5 McFarland standard to yield a final inoculum between 3×10^5 and 7×10^5 colony-forming units (CFU)/mL. Drug dilutions and inocula were made in sterile, cation adjusted Mueller-Hinton Broth (Beckton Dickinson). An inoculum volume of 100 μL was added to wells containing 100 μL of broth with 2-fold serial dilutions of drug. All inoculated microdilution trays were incubated in ambient air at 35° C. for 18-24 hours. Following incubation, the lowest concentration of the drug that prevented visible growth (OD600 nm<0.05) was recorded as the MIC. Performance of the assay was monitored by the use of laboratory quality-control strains and levofloxacin, a compound with a defined MIC spectrum, in accordance with CLSI guidelines. Typically, compounds of the present invention have MIC values of […].
(§3) As shown in the following Table 3, three pairs of compounds were tested in the neutropenic thigh efficacy model. For each pair of compounds, the compounds were identical in structure except for the A moiety. More specifically, A is —C(CH3)2NH2 in one compound and A is —C(CH3)2OH in the other compound. […] In addition, the ratios of the MICs of each pair of compounds on the infecting strain (ATCC43816) was calculated.

[9] = tested on: ATCC43816; experiment: Neutropenic thigh efficacy model; type: in vivo, mice; settings: for Ratio of thigh static doses: neutropenic thigh model, compound with A = —C(CH3)2NH2 versus paired compound with A = —C(CH3)2OH, ratio >1 means the —C(CH3)2NH2 compound had a lower static dose; for Ratio of thigh static dose normalized to MICs: ratio of neutropenic thigh static doses normalized to the MIC ratio on ATCC43816, —C(CH3)2NH2 compound versus paired —C(CH3)2OH compound
Procedure: Mice were rendered neutropenic prior to infection with 2 doses of cyclophosphamide, and then infected intramuscularly in the thigh with 10^5-10^6 CFU of bacteria. See Gudmundsson S., Erlensdottir H., “Murine Thigh Infection Model” Handbook of Animal Models of Infection, M. A. Sande and O. Zak, Eds.; London: Academic Press, 1999, pp 137-144. Antibiotics or vehicle alone as a negative control were administered twice at 2 hrs and 14 hrs post-infection. At 24 hrs post-infection, thighs were harvested, homogenized, and plated to measure the number of CFUs surviving per thigh. Thighs from a subset of animals were also harvested 2 hrs post-infection to record the CFUs present just prior to the first antibiotic treatment (pre-treatment). The static dose, defined as the dose required to result in a CFU load at 24 hours that is identical to that measured at 0 hours post infection, was calculated by standard methods in Prizm from a dose response curve.
as §3

[10] = ATCC25922, read-out: MIC AECO001
[11] = ATCC25922, read-out: MIC AECO001 HSA AGP

melting point: 152 to 153 °C
Structure (SMILES): C[C@@H](O)[C@H](NC(=O)c1ccc(F)c(Br)c1)C(=O)NO

melting point: 64 to 65 °C
Structure (SMILES): O=C(NO)[C@H]1[C@H](O)CCN1C(=O)c1ccc(OC(F)(F)F)cc1

Structure (SMILES): CC(C)(N)[C@H](NC(=O)c1ccc(C#CC#Cc2cccs2)cc1)C(=O)NO [Example 88-13]
MIC [1, 10]: < 2 µg/mL
MIC [1, 11]: < 2 µg/mL
Ratio of MICs on AECO001 [Cpd (A = —CHCH3NH2)/Cpd (A = —C(CH3)2NH2)] [1]: 4.1
MIC [2]: < 2 µg/mL
MIC [3]: < 2 µg/mL
MIC [4]: < 2 µg/mL
MIC APAE006 + PMBN [5]: A (MIC's of 2.0 μg/mL or less = A)
MIC [6]: < 2 µg/mL
MIC [7]: 2 to 16 µg/mL (≈ 5.24 to 41.9 µM)
Ratio of MICs on ATCC43816 [Cpd (A = —CH(CH3)2OH/Cpd (A = —C(CH3)2NH2)]) [8]: 1.6
Ratio of thigh static doses [9]: >7x
Ratio of thigh static dose normalized to MICs [9]: >4.4x

Structure (SMILES): CC(C)(N)[C@H](NC(=O)c1ccc(C#CC#CC2CC2)cc1)C(=O)NO [Example 91-12]
MIC [1, 10]: < 2 µg/mL
MIC [1, 11]: < 2 µg/mL
Ratio of MICs on AECO001 [Cpd (A = —CHCH3NH2)/Cpd (A = —C(CH3)2NH2)] [1]: 5.6
MIC [2]: < 2 µg/mL
MIC [3]: < 2 µg/mL
MIC [4]: < 2 µg/mL
MIC APAE006 + PMBN [5]: A (MIC's of 2.0 μg/mL or less = A)
MIC [6]: < 2 µg/mL
MIC [7]: 2 to 16 µg/mL (≈ 5.89 to 47.1 µM)
Ratio of MICs on ATCC43816 [Cpd (A = —CH(CH3)2OH/Cpd (A = —C(CH3)2NH2)]) [8]: 1.0
Ratio of thigh static doses [9]: >3x
Ratio of thigh static dose normalized to MICs [9]: >3x

Structure (SMILES): CC(C)(N)[C@H](NC(=O)c1ccc(C#Cc2ccc(CN3CCCOCC3)cc2)cc1)C(=O)NO [Example 122-5]
MIC [1, 10]: < 2 µg/mL
MIC [1, 11]: < 2 µg/mL
Ratio of MICs on AECO001 [Cpd (A = —CHCH3NH2)/Cpd (A = —C(CH3)2NH2)] [1]: 2.4
MIC [2]: < 2 µg/mL
MIC [3]: < 2 µg/mL
MIC [4]: < 2 µg/mL
MIC APAE006 + PMBN [5]: A (MIC's of 2.0 μg/mL or less = A)
MIC [6]: < 2 µg/mL
MIC [7]: 16 to 64 µg/mL (≈ 34.4 to 138 µM)
Ratio of MICs on ATCC43816 [Cpd (A = —CH(CH3)2OH/Cpd (A = —C(CH3)2NH2)]) [8]: 0.5
Ratio of thigh static doses [9]: >2x
Ratio of thigh static dose normalized to MICs [9]: >4x
